Assay [1] addresses T1, Serine/threonine protein kinase YCK2 (Candida albicans (strain SC5314 / ATCC MYA-2876) (Yeast)) (UniProt A0A1D8PKB4).
T1 sequence (whole entry): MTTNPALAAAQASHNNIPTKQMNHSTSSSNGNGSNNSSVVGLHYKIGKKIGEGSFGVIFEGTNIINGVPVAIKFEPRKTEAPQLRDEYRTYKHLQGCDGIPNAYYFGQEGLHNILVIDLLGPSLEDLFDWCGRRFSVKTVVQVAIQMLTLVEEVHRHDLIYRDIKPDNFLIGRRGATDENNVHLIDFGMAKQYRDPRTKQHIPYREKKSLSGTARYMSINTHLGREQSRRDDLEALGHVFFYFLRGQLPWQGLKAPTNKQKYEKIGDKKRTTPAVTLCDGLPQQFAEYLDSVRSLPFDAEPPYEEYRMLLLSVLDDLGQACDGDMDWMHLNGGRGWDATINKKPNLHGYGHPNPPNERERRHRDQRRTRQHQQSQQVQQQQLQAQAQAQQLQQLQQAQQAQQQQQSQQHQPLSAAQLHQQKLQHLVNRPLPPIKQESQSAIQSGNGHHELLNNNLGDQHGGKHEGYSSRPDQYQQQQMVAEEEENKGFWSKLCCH
Description: Binding affinity to Candida albicans Yck2 assessed as target engagement by MIB/MS competition assay.

Assay [2] deals with T2, Serine/threonine protein kinase YCK2 (Candida albicans (strain SC5314 / ATCC MYA-2876) (Yeast), UniProt A0A1D8PKB4).
T2 sequence (A0A1D8PKB4 whole entry): T1 sequence (whole entry)
In kind it is cell-based, HEK293.

For assay [3], the target named is T3, Casein kinase I isoform epsilon (Homo sapiens, UniProt P49674). In kind it is cell-based, HEK293.
Target sequence in this assay (P49674 whole entry, canonical isoform): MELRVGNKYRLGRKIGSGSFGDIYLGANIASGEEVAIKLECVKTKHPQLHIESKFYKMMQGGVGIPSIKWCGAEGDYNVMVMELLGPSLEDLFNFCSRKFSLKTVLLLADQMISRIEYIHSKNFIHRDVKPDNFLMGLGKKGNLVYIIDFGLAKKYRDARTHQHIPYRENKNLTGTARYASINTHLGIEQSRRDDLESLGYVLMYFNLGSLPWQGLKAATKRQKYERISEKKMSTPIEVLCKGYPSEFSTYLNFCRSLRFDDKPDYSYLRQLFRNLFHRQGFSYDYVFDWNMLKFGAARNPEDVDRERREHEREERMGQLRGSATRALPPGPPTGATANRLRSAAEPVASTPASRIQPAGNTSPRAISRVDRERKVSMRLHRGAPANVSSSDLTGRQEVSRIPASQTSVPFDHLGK
Assay [4] has as its target T4, Casein kinase I isoform delta (Homo sapiens, UniProt P48730). It counts as cell-based, HEK293.
Target sequence in this assay (P48730 whole entry, canonical isoform): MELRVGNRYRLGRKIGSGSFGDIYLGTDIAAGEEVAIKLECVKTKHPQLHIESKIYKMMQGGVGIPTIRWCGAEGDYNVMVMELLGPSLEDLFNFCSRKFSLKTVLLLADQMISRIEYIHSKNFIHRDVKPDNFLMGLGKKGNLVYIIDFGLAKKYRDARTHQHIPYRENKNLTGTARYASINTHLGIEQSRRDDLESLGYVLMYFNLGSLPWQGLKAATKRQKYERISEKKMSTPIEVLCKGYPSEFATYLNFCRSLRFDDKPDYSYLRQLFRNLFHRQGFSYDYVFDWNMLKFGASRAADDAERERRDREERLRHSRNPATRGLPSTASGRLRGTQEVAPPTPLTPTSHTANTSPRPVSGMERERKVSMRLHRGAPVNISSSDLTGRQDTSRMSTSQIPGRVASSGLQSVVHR
For assay [5], the target named is T3, Casein kinase I isoform epsilon. Description: Inhibition of human CK1epsilon transfected in HEK293 cells at 10 uM using NanoBRET NanoGlo substrate incubated for 2 hrs in presence of K8 tracer by NanoBRET assay relative to control. In kind it is cell-based. In general terms: BRET reads energy transfer from a luciferase to a nearby fluorophore.
Target sequence in this assay (P49674 whole entry, looked up, canonical isoform): as the sequence (P49674 whole entry, canonical isoform) above
The target of assay [6] is T5, Mitogen-activated protein kinase 14 (Homo sapiens, UniProt Q16539).
The target in assay [7] is Casein kinase I isoform alpha (Homo sapiens, UniProt P48729).
Assay [8] addresses T2, Serine/threonine protein kinase YCK2.
The test system of assay [9] is HEK293. Particulars: Candida albicans, dose 10.0 µM.
In assay [10] the test system is HEK293. The settings on record: Candida albicans, dose 10.0 µM. The source holds these as a separate data set.
For assay [11], the target named is Mitogen-activated protein kinase 11 (Homo sapiens) (UniProt Q15759). Kind of assay: Binding affinity to human P38beta transfected in HEK293 cells at 0.1 to 10 uM by MIB/MS competition assay. It counts as cell-based. The settings on record: dose 0.1-10 µM.
In assay [12] the target is T4, Casein kinase I isoform delta. Kind of assay: Binding affinity to human CK1 delta transfected in HEK293 cells at 0.1 to 10 uM by MIB/MS competition assay. It counts as cell-based. Particulars: dose 0.1-10 µM.
Target sequence in this assay (P48730 whole entry, looked up, canonical isoform): as the sequence (P48730 whole entry, canonical isoform) above
The target of assay [13] is T3, Casein kinase I isoform epsilon. Description: Binding affinity to human CK1epsilon transfected in HEK293 cells at 0.1 to 10 uM by MIB/MS competition assay. In kind it is cell-based. Particulars: dose 0.1-10 µM.
Target sequence in this assay (P49674 whole entry, looked up, canonical isoform): as the sequence (P49674 whole entry, canonical isoform) above
For assay [14], the target named is T1, Serine/threonine protein kinase YCK2 (Candida albicans (strain SC5314 / ATCC MYA-2876) (Yeast)). The settings on record: HEK293, dose 10.0 µM.
For assay [15], the system named is HEK293. The settings on record: Candida albicans, dose 10.0 µM. This is another data set of the same source.
The target in assay [16] is T1, Serine/threonine protein kinase YCK2 (Candida albicans (strain SC5314 / ATCC MYA-2876) (Yeast)). The settings on record: HEK293, dose 10.0 µM. The source holds these as a separate data set.
Assay [17] concerns the target Serine/threonine-protein kinase N3 (Homo sapiens) (UniProt Q6P5Z2). Description: Binding affinity to human PKN3 transfected in HEK293 cells at 0.1 to 10 uM by MIB/MS competition assay. In kind it is cell-based. The settings on record: dose 0.1-10 µM.
In assay [18] the target is Receptor-interacting serine/threonine-protein kinase 2 (Homo sapiens) (UniProt O43353). Description: Binding affinity to human RIPK2 transfected in HEK293 cells at 0.1 to 10 uM by MIB/MS competition assay. In kind it is cell-based. The settings on record: dose 0.1-10 µM.
Assay [19] has as its target T5, Mitogen-activated protein kinase 14. Kind of assay: Inhibition of human P38alpha transfected in HEK293 cells using NanoBRET NanoGlo substrate incubated for 2 hrs in presence of K4 tracer by NanoBRET assay. It counts as cell-based.
Assay [20] deals with Casein kinase I isoform gamma-2 (Homo sapiens) (UniProt P78368). Description: Binding affinity to human CK1gamma 2 transfected in HEK293 cells at 0.1 to 10 uM by MIB/MS competition assay. In kind it is cell-based. The settings on record: dose 0.1-10 µM.
The target of assay [21] is T6, Activin receptor type-1B (Homo sapiens) (UniProt P36896).
T6 sequence (whole entry): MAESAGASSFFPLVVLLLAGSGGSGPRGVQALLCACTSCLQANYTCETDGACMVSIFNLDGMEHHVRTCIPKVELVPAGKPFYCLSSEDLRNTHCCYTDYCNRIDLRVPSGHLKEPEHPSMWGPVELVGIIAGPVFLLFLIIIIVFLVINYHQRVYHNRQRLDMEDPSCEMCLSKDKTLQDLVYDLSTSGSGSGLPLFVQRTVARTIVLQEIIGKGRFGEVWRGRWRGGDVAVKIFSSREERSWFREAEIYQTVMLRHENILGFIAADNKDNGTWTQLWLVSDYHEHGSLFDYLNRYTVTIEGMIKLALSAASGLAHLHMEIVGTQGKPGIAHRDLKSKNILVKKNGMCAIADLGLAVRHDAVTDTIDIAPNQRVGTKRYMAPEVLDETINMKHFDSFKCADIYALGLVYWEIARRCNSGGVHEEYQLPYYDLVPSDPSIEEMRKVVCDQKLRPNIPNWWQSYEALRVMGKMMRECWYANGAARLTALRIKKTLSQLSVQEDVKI
Kind of assay: Binding affinity to human ALK4 transfected in HEK293 cells at 0.1 to 10 uM by MIB/MS competition assay. The settings on record: dose 0.1-10 µM. In kind it is cell-based.

In assay [22] the test system is Candida albicans. Kind of assay: Antifungal activity against Candida albicans harboring tetO-YCK2/yck2 mutant assessed as inhibition of fungal growth at 100 uM in presence of doxycyclin. It counts as functional, organism-based.
Assay [23] relates to Candida albicans. Description: Antifungal activity against Candida albicans harboring flu1mutant/mutant assessed as inhibition of fungal growth. It counts as functional, organism-based.
Assay [24] has as its system Candida albicans. Description: Binding affinity to Candida albicans Hog1 assessed as target engagement at 0.1 to 10 uM by MIB/MS competition analysis. Particulars: dose 0.1-10 µM.
In assay [25] the test system is Candida albicans. Kind of assay: Antifungal activity against Candida albicans harboring cdr2mutant/mutant assessed as inhibition of fungal growth. In kind it is functional, organism-based.
Assay [26] deals with Candida albicans. Description: Binding affinity to Candida albicans Hrr25 assessed as target engagement at 0.1 to 10 uM by MIB/MS competition assay. Particulars: dose 0.1-10 µM.
In assay [27] the test system is Candida albicans. Description: Antifungal activity against Candida albicans harboring cdr1mutant/mutant assessed as inhibition of fungal growth. It counts as functional, organism-based.
For assay [28], the system named is Candida albicans. Kind of assay: Antifungal activity against Candida albicans harboring tetO-ERG6/erg6mutant assessed as inhibition of fungal growth in presence of doxycyclin. It counts as functional, organism-based.
The test system of assay [29] is Candida albicans. Description: Antifungal activity against wild type Candida albicans CaSS1 at 100 uM. It counts as functional, organism-based.
Assay [30] has as its system Candida albicans. Kind of assay: Antifungal activity against Candida albicans harboring mdr1mutant/mutant assessed as inhibition of fungal growth. In kind it is functional, organism-based.
The subject of assay [31] is Candida albicans. Description: Antifungal activity against Candida albicans harboring tetO-YCK2/yck2 mutant assessed as inhibition of fungal growth at 100 uM in absence of doxycyclin. In kind it is functional, organism-based.

Each structure is given as a SMILES string. Active and inactive are the calls of the source. No cut-off for these calls is given here. Where only a bound is given, the exact number is not on record here.

Chain of Casein kinase I isoform alpha (P48729 whole entry, canonical isoform): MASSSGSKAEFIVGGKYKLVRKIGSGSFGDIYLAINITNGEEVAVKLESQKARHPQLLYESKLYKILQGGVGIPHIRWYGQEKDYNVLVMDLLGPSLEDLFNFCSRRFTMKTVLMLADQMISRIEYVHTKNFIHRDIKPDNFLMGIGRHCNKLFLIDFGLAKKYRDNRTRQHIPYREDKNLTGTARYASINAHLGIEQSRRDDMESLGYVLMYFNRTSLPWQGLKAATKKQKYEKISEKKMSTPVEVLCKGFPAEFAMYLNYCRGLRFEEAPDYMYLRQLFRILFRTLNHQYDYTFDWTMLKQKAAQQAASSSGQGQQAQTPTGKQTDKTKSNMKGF
T5 sequence (Q16539 whole entry, canonical isoform): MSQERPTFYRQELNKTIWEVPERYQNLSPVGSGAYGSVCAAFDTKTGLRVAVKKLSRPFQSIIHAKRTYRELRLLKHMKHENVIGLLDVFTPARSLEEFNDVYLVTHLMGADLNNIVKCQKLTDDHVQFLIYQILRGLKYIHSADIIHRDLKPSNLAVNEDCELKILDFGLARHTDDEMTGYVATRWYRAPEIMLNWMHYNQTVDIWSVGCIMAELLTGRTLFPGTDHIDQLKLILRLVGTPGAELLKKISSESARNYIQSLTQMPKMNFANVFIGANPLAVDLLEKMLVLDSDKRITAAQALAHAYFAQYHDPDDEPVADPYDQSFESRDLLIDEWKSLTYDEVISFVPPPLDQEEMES
Chain of Serine/threonine-protein kinase N3 (Homo sapiens) (Q6P5Z2 whole entry, looked up): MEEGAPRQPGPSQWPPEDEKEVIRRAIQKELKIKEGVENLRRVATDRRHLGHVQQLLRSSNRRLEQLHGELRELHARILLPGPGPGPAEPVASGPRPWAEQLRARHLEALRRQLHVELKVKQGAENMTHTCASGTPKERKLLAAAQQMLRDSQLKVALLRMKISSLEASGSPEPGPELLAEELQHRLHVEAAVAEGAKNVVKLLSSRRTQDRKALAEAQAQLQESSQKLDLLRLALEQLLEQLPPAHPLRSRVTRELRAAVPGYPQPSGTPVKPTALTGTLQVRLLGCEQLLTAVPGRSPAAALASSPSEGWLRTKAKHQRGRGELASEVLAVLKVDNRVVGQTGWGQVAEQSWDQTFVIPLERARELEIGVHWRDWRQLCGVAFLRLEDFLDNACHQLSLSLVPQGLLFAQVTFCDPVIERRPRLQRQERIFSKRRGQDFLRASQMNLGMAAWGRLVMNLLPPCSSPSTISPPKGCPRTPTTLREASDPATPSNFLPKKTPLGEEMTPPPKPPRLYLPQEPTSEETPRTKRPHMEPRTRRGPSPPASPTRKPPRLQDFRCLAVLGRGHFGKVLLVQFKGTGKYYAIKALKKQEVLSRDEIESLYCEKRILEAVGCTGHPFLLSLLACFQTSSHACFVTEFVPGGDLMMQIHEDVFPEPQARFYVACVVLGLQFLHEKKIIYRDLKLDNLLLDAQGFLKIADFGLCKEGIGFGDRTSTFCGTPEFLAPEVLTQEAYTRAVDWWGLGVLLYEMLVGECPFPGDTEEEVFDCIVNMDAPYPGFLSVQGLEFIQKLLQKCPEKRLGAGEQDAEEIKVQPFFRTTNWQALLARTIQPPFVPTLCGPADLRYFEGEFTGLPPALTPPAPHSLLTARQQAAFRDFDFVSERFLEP
Chain of Receptor-interacting serine/threonine-protein kinase 2 (Homo sapiens) (O43353 whole entry): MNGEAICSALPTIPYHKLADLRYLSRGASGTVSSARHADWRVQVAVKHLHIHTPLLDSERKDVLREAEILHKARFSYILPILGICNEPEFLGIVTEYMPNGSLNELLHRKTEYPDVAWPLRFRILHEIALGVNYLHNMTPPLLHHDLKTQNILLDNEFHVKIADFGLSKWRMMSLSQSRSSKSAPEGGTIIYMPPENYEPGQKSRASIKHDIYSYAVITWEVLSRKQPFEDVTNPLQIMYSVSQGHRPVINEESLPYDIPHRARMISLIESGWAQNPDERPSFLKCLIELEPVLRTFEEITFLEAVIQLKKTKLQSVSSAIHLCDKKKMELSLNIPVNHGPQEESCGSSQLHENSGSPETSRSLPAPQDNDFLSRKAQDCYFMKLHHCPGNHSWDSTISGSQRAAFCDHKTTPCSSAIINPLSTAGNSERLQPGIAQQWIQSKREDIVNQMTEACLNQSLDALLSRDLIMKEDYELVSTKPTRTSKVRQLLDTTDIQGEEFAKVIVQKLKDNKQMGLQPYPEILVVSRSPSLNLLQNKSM
Chain of Mitogen-activated protein kinase 11 (Homo sapiens) (Q15759 whole entry, canonical isoform): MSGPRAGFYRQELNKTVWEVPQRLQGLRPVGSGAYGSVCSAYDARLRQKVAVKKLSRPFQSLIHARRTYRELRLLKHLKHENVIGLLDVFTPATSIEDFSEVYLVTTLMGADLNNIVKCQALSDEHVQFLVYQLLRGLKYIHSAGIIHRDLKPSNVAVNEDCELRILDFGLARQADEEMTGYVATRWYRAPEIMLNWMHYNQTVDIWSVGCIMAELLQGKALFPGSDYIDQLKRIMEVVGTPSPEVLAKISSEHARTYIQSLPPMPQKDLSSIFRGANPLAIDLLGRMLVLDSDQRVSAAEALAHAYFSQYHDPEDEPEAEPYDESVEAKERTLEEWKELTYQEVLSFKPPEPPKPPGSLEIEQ
Chain of Casein kinase I isoform gamma-2 (Homo sapiens) (P78368 whole entry, looked up, canonical isoform): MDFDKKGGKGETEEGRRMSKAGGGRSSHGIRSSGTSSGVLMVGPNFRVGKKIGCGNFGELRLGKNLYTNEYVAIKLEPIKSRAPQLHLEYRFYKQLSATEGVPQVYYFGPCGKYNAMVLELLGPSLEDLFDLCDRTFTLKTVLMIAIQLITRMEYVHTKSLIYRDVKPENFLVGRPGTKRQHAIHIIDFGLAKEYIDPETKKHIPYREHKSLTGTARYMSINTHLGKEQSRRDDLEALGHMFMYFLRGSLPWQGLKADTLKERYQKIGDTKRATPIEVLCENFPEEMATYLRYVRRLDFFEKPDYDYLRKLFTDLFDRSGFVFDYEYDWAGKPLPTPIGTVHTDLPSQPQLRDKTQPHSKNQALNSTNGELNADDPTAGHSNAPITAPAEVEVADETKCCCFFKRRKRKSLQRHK

Usually IC50 stands for the midpoint of a concentration-inhibition curve. In the case of `Cc1n[nH]c2ccc(-c3cc(OC[C@@H](N)Cc4ccccc4)cnc3-c3ccoc3)cc12`, the Activity entry in [1] is “Dose-dependent-effect”. Further, the values for the IC50 in assay [2], in assay [3] and in [4] were 100 nM, 200 nM and 100 nM, respectively.

Broadly, the inhibition is the change of the read-out against control, counted positive when it falls. Regarding `Cc1nc(N)sc1-c1ccnc(Nc2ccc(N3CCOCC3)cc2)n1` [CYC-116], the inhibition in [5] was over 50%. The results for the IC50 in assay [6], in assay [2] and in assay [3] were over 20000 nM, over 10000 nM and about 10000 nM, respectively.

Take `CNC(=O)c1nn(C)c2c1C(C)(C)Cc1cnc(Nc3ccc(N4CCN(C)CC4)cc3)nc1-2` [MILCICLIB]: the IC50 in assay [7] was 250 nM; in [6] it was over 20000 nM; in [8], 770 nM; in assay [2], 1100 nM; in assay [4], 200 nM.

As to `N#Cc1ccn2c(-c3ccncc3)c(-c3ccc(F)cc3)nc2c1`, the log2FC in assay [9] was -2.2; in assay [10] it was -1; in assay [14], -3.5; in assay [15], -1.4; in assay [16], -2.2. Moreover, the inhibition in [5] was determined as 25%. The result in assay [11], in assay [12], in assay [13], in [17] and in assay [18] was Active. This compound also gave an IC50 in [3] of over 10000 nM.

On to `CC(C)[C@H](CO)Nc1nc(Nc2cc(N)cc(Cl)c2)c2ncn(C(C)C)c2n1` [AMINOPURVALANOL], for which the IC50 in assay [7] is over 20000 nM; in assay [6], over 20000 nM; in [8] it was over 8000 nM; in [2], over 10000 nM; in assay [3], over 10000 nM; in assay [4], over 10000 nM. For the same compound, in assay [5], the inhibition was 25%.

Regarding `CC(=O)c1cnc2ccc(-c3cc(Cl)c(O)c(Cl)c3)nc2c1N[C@H]1CC[C@H](CN(C)C)CC1`, the IC50 in [6] was 40 nM; in assay [2] it was 660 nM; in assay [19], over 10000 nM.

`Cc1occc1-c1nc(N)c(OC[C@@H](N)Cc2c[nH]c3ccccc23)cc1-c1cc2c(C)n[nH]c2cn1`: the IC50 in [8] was found to be 180 nM; in assay [2], 3700 nM; in [3] it was 620 nM; in assay [4] it was 1400 nM.

In the case of `CC(C)(C)c1cnc(CSc2cnc(NC(=O)C3CCNCC3)s2)o1` [BMS-387032], the inhibition in assay [5] was 25%. In addition, the IC50 was over 8000 nM in assay [8] and over 10000 nM in assay [2].

As for `CC(C)n1nc(-c2cc3cc(O)ccc3[nH]2)c2c(N)ncnc21`, the inhibition in [5] is over 50%.

For the compound `N#Cc1ccc2c(-c3ccncc3)c(-c3ccc(F)cc3)nn2c1`, the outcome in assay [20], in [21], in assay [12], in [13], in assay [17] and in assay [18] was Active. Further, the inhibition in assay [5] turned out to be 25%. The values for the IC50 in assay [19] and in assay [3] were 80 nM and over 10000 nM, respectively.

Turning to `Nc1nc(Nc2ccc(S(N)(=O)=O)cc2)n(C(=S)Nc2c(F)cccc2F)n1`, the IC50 in assay [7] is over 20000 nM; in assay [6] it was over 20000 nM; in assay [8], 470 nM; in assay [2] it was over 10000 nM; in assay [3], over 10000 nM. In addition, in assay [5], the inhibition turned out to be 25%.

In the case of `c1ccc(-c2n[nH]cc2-c2ccnc3ccccc23)nc1`, the outcome in [22], in [26], in [28] and in assay [31] was Active. The result in [23], in [24], in assay [25], in assay [27] and in assay [30] was inactive. Also, in [5], the inhibition was under 25%. The IC50 was 2600 nM in assay [6], 760 nM in assay [19] and 2800 nM in [4]. Moreover, the Activity result in assay [29] is “Active; Weakly Active”.

Regarding `CC(C)(C)n1nc(Cc2cccc3ccccc23)c2c(N)ncnc21`, the half-maximal inhibitory concentration (IC50) in assay [6] is 750 nM; in assay [8], over 8000 nM; in assay [19], 1600 nM; in [3], 14 nM; in [4], over 10000 nM.

On to `CN1CCC(F)(Cn2cnc(-c3ccc(F)cn3)c2-c2ccnc3[nH]ccc23)CC1`, for which the IC50 was 14 nM in [7], 640 nM in assay [8], over 10000 nM in [2] and 82 nM in assay [3].

In the case of `Cc1ccc2c(-c3ccncc3)c(-c3ccc(F)cc3)nn2c1`, the IC50 in assay [19] stood at 44 nM; in [3], 780 nM; in assay [4] it was 230 nM.

For the compound `C[C@@H](N)c1ccc(C(=O)Nc2ccnc3[nH]ccc23)cc1` [Y-39983], in assay [5], the inhibition is 25%. Further, the IC50 was over 20000 nM in [6]; over 8000 nM in assay [8]; over 10000 nM in assay [2]; over 10000 nM in [3]; over 10000 nM in [4].

Values taken from ChEMBL document CHEMBL6109119, “Chemoproteomic Profiling of C. albicans for Characterization of Antifungal Kinase Inhibitors” (J Med Chem, 2025).
